{"source": "paper PMC9065035", "about": "“Structural basis for the synthesis of the core 1 structure by C1GalT1” (Nature Communications, 2022)", "key": {"DmC1GalT1^T43-Q388 [1]": {"target": "T1, DmC1GalT1^T43-Q388 (Drosophila melanogaster, UniProt Q7K237)", "T1 sequence (Q7K237 43-388)": "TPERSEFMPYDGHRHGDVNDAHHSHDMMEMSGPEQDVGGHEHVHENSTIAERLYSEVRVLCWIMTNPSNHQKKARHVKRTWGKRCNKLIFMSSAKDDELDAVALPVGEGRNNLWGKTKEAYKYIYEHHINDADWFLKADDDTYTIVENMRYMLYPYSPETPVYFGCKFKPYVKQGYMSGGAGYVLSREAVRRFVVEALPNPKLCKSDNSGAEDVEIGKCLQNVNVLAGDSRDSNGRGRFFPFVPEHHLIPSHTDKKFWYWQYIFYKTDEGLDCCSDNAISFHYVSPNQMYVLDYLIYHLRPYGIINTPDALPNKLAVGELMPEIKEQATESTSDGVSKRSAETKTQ", "assay": "Isothermal titration calorimetry (ITC)", "type": "binding", "parameters": "made in house", "experimental": "ITC was used to characterize the interaction of DmC1GalT1^T43-Q388 with UDP, APDT*RP with and without UDP, APDTRP with UDP, and P4/P7 with and without UDP. All experiments were carried out in an Auto-iTC200 (Microcal, GE Healthcare) at 20 °C. The titration of DmC1GalT1^T43-Q388 with UDP was carried out at 100 μM of the enzyme with 800 μM UDP in 25 mM TRIS pH 7.5, 150 mM NaCl and 1 mM MnCl2. The titrations with APDT*RP and P4/P7 in the absence of UDP were carried out at 60 μM of the enzyme with 2 mM P4/P7 in 25 mM TRIS pH 7.5, 150 mM NaCl and 1 mM MnCl2. To determine the Kds for APDT*RP, APDTRP and P4/P7 under an excess of UDP, the experiments were made in 25 mM TRIS pH 7.5, 150 mM NaCl, 1 mM UDP and 1 mM MnCl2. The concentration of the enzyme was 60 μM for the titrations of APDT*RP and APDTRP and 50 μM for the titration with P4/P7. The concentration of the (glyco)peptides was 2 mM in all the ITC experiments. The experiments were performed in duplicate. Data integration, correction and analysis were carried out in Origin 7 (Microcal). The data were fit to a one-site equilibrium-binding model. Stoichiometry (n) of binding in all cases was ~1:1 except for UDP whose n = 0.4."}, "DmC1GalT1^T43-Q388 [2]": {"target": "T1, DmC1GalT1^T43-Q388", "assay": "UDP-Glo glycosylation kinetics of DmC1GalT1 T43-Q388", "details": "500 µM UDP-Gal"}, "DmC1GalT1^T43-Q388 [3]": {"target": "T1, DmC1GalT1^T43-Q388", "assay": "STD NMR experiments", "type": "binding", "parameters": "made in house", "details": "presence of UDP ([…]) and 150 µM MnCl2; 20 µM enzyme, 710 µM ligand", "experimental": "STD NMR experiments were performed using a 1:35 molar ratio, defined by 20 μM DmC1GalT1^T43-Q388 and 710 μM ligands (α-O-methyl-GalNAc, and (glyco)peptides), and 25 mM Tris(D11)-DCl buffer, pD 7.5, with 150 mM NaCl and 150 µM MnCl2 in D2O. […] In the presence of 150 µM MnCl2, strong paramagnetic relaxation enhancements are observed for UDP, which prevents the observation of UDP proton signals in the NMR spectra. […] STD NMR spectra (stddiffesgp pulse sequence from Bruker pulse program library) were acquired with 1728 scans and 64 K data points, in a spectral window of 12335.53 Hz centered at 2818 Hz. Selective saturation (on resonance) was performed by irradiating at 7 and/or −0.5 ppm (depending if the ligand contains or not aromatic residues) using a series of 40 Eburp2.1000-shaped (from Bruker shaped pulses library) 90° pulses (50 ms) for a total saturation time of 2 s, and a relaxation delay of 4 s. For the reference spectrum (off resonance), the samples were irradiated at 100 ppm. Proper control experiments were performed for each ligand in the absence of protein and residual STD signals of the methyl groups of Ala/Thr were observed. […] Protein control experiments were also accomplished using DmC1GalT1^T43-Q388 in absence of a ligand and also subtracted from STD experiment. The STD spectrum (ISTD) was obtained by subtracting the on-resonance spectrum (Ion) to the off-resonance spectrum (Ioff). The % of STD (ISTD/Ioff × 100) was estimated by comparing the intensity of the signals in the STD spectrum (ISTD) with the signal intensities of the reference spectrum (Ioff). The STD amplification factor (STDAF) was also estimated by multiplying the % STD values by the ligand excess, which in the case of our experiments was 35 for every ligand. To determine the STD-derived epitope map the relative % of STD were calculated by setting to 100% the STD signal of the proton with the highest STD intensity and calculating the others accordingly (Supplementary Tables 2–4). Some protons were not able to be assessed with accuracy due to the use of water suppression or low signal/noise ratio and display a blue circle in the STD-derived epitope maps. Moreover, the resonances overlapped on the ^1H-NMR spectrum were considered in STD estimation and are labelled as *."}, "[4]": {"assay": "Activity of DmC1GalT1 mutants (UDP-Glo)", "type": "biochemical, Drosophila melanogaster", "details": "500 µM UDP-Gal, 500 µM APDT*RP", "from_the_text": "The DNA sequence encoding amino acid residues of the DmC1GalT1 (aa T43-Q388) was codon optimized and synthesized by GenScript (USA) for expression in HEK293 cells (GIBCO). The construct, containing at the 5′-end a recognition sequence for AgeI, and at the 3′-end a recognition sequence for KpnI, was cloned into a pHLSec plasmid that contained a sequence encoding a 6xHis tag at the 3′-end followed by a stop codon, rendering the vector pHLSec-DmC1GalT1-6His. The cloning of the construct into pHLSec was performed by GenScript. All mutants in DmC1GalT1 (R152A, Y213A, Y218A, D255A, W300A and Y325A) were generated following a standard site-directed mutagenesis protocol by GenScript using the vector pHLSec-DmC1GALT1-6His. pHLSec-DmC1GalT1-6His and all the plasmids encoding for the different mutants were transfected into HEK293 cell line as described below. For DNA amplification, all plasmids were transformed in E. coli DH5α cells and extracted with PureLink™ Expi Endotoxin-Free Giga Plasmid Purification Kit (Invitrogen) according to the manufacturer’s instructions. Cells were grown in suspension in a humidified 37 °C and 8% CO2 incubator with rotation at 125 rpm. Transfection was performed at a cell density of 2.5 × 10^6 cell/mL in fresh media F17 serum-free media (Gibco) with 2% Glutamax and 0.1% Kolliphor® P 188. For each 150 mL of culture, 450 μg of the plasmid (1 μg/μL) was mixed with 135 μL of sterilized 1.5 M NaCl. This mixture was added to each 150 mL cell culture flask and incubated for 5 min in the incubator. […] Cells were diluted 1:1 with pre-warmed media supplemented with valproic acid 24 h post-transfection to a final concentration of 2.2 mM. Then, cells were harvested 6 days post-transfection by spinning down at 300 × g for 5 min, after which the supernatants were collected and centrifuged at 4000 × g for 15 min. Supernatant was dialyzed against buffer A and loaded into a His-Trap Column (GE Healthcare). Protein was eluted with an imidazol gradient in buffer A from 10 mM up to 400 mM. Buffer exchange to buffer C was carried out using a HiPrep 26/10 Desalting Column (GE Healthcare). The isolated DmC1GalT1-His and its mutants were then loaded in HiLoad 26/60 Superdex 75 Colum (GE Healthcare), previously equilibrated with buffer C."}, "[5]": {"details": "excess UDP (1 mM), 1 mM MnCl2, 20 °C"}}, "data": [{"substance": "APDTRP", "values": [{"measurement": "Kd", "setting": "DmC1GalT1^T43-Q388 [1]; excess UDP (1 mM UDP, 1 mM MnCl2), 2 mM (glyco)peptide, 50–60 µM enzyme, 25 mM TRIS pH 7.5, 150 mM NaCl, 20 °C, one-site fit ± fit error, n = 2", "result": "Not measurable under our conditions"}, {"measurement": "-TΔS", "setting": "DmC1GalT1^T43-Q388 [1]; [5]", "result": "Not measurable under our conditions"}, {"measurement": "n (stoichiometry of binding)", "setting": "DmC1GalT1^T43-Q388 [1]; [5]", "result": "Not measurable under our conditions"}, {"measurement": "ΔG", "setting": "DmC1GalT1^T43-Q388 [1]; [5]", "result": "Not measurable under our conditions"}, {"measurement": "ΔH", "setting": "DmC1GalT1^T43-Q388 [1]; [5]", "result": "Not measurable under our conditions"}, {"measurement": "binding by ITC", "setting": "DmC1GalT1^T43-Q388 [1]; presence of an excess of UDP", "result": "no binding"}, {"measurement": "activity as acceptor substrate", "setting": "DmC1GalT1^T43-Q388 [2]", "result": "inactive"}, {"measurement": "Km app", "setting": "DmC1GalT1^T43-Q388 [2]; acceptor substrate varied (P1–P7 12.5–500 µM; APDT*RP/APDS*RP 12.5–1000 µM; α-O-methyl-GalNAc up to 2 mM), 500 nM enzyme, 25 mM Tris pH 7.5, 150 mM NaCl, 50 µM MnCl2, 1 mg/ml BSA, 30 min 37 °C, Michaelis–Menten fit ± standard error, n = 2", "result": "not active"}, {"measurement": "kcat app", "setting": "DmC1GalT1^T43-Q388 [2]; acceptor varied, 500 nM enzyme, pH 7.5, 30 min 37 °C, Michaelis–Menten fit ± standard error, n = 2", "result": "not active"}, {"measurement": "kcat app/Km app (catalytic efficiency)", "setting": "DmC1GalT1^T43-Q388 [2]; acceptor varied, 500 nM enzyme, pH 7.5, 30 min 37 °C, ± standard error, n = 2", "result": "not active"}, {"measurement": "Km", "setting": "DmC1GalT1^T43-Q388 [2]; read-out: Km app, acceptor substrate varied (P1–P7 12.5–500 µM; APDT*RP/APDS*RP 12.5–1000 µM; α-O-methyl-GalNAc up to 2 mM), 500 nM enzyme, 25 mM Tris pH 7.5, 150 mM NaCl, 50 µM MnCl2, 1 mg/ml BSA, 30 min 37 °C, Michaelis–Menten fit ± standard error, n = 2", "result": "~50", "unit": "µM"}, {"measurement": "STD response", "setting": "DmC1GalT1^T43-Q388 [3]", "result": "did not display STD response"}]}, {"substance": "R152A: DmC1GalT1 Ala mutant of Arg152", "values": [{"measurement": "decrease in activity with respect to the WT", "setting": "[4]", "result": 15, "unit": "fold"}]}, {"substance": "W300A: DmC1GalT1 Ala mutant of Trp300", "values": [{"measurement": "activity of the mutant", "setting": "[4]", "result": "inactive"}]}, {"substance": "Y213A: DmC1GalT1 Ala mutant of Tyr213", "values": [{"measurement": "decrease in activity with respect to the WT", "setting": "[4]", "result": 25, "unit": "fold"}]}, {"substance": "Y218A: DmC1GalT1 Ala mutant of Tyr218", "values": [{"measurement": "activity of the mutant", "setting": "[4]", "result": "inactive"}]}, {"substance": "Y325A: DmC1GalT1 Ala mutant of Tyr325", "values": [{"measurement": "decrease in activity with respect to the WT", "setting": "[4]", "result": 25, "unit": "fold"}]}]}
